Like-named read-outs stand apart in the source and are kept apart here.
Columns and labels:
[1] = test system: healthy rabbit; test: Production of mucus in the healthy rabbit (method of R. Scuri et al.); type: in vivo; conditions: Oryctolagus cuniculus, administration route: oral
Description: (§1) The following table indicates e.g. the bronchial secretion stimulating and mucolytic activity of the compound 10 (R⁴=H, R⁵=OH) as compared to sobrerol.

[2] = test system: rat; test: Expectorating activity in the rat (method of K. Kogi et al.); type: in vivo; conditions: os, read-out: Expectorating activity in the rat, ED₅₀ os
Description: as §1

[3] = read-out: Production of mucus in the healthy rabbit: No.of animals/increase, ED₅₀
[4] = read-out: Production of mucus in the healthy rabbit: Production of mucus, ED₅₀

Question: What does the source list for `CC(C)(O)C1CC=C(CS)C(O)C1` (stereo not drawn) [Compound 10, 2-hydroxy-4-(1-hydroxy-1-methylethyl)-6-cyclohexene-1-methanethiol]?
Answer: ED50 [1, 3]: 400 mg/kg; ED50 [1, 4]: 400 mg/kg; ED50 [2]: 100 mg/kg

Question: Which ED50 [1, 3] does the source give for `CC1=CCC(C(C)(C)O)CC1O` (stereo not drawn) [Sobrerol] here?
Answer: 500 mg/kg

Question: And the ED50 [1, 4]?
Answer: 500 mg/kg

Question: What about the ED50 [2] of the same compound?
Answer: 40 mg/kg

Source: patent publication EP0343367A1, “Mercapto-compounds having mucolytic action and a process for their preparation” (CAMILLO CORVI S.p.A., priority 1988, dated 1989)
